Assay results reported in patent US10151756B2, “Predictive markers for polyamine inhibitor cancer therapies” (ARIZONA BOARD OF REGENTS ON BEHALF OF UNIVERSITY OF ARIZONA, priority 2012, dated 2018).
Entries after “also recorded” stand apart in the source; their conditions may differ.

Legend:
[1] = tested on: HMGA2; assay: Immunoblot of HMGA2 protein in HCT116 cells; assay type: cell-based, human
Procedure: (§1) HCT116 cells were grown in DMEM media supplemented with 10% fetal bovine serum and cultured at 37° C. For reverse transcription, total RNA was extracted using mirVana RNA isolation kit and reverse transcription performed using Taqman Small RNA Assays with predesigned primer specific to mature let-7 (Applied Biosystems). […] Western blots were conducted using anti-HMGA2 (Cell Signaling), LIN28 (abcam), anti-V5 (Invitrogen), eIF5A1 (Epitomics), and Actin (Sigma). […] Pre-designed Silencer Select siRNAs (Invitrogen) were obtained to specifically knockdown eIFSA isoforms. […] All bars show mean±s.d and statistical analysis was performed by using Student's t-test (*P<0.05; **P<0.01, ***P<0.001).
(§2) Immunoblot Analysis and Quantification of Western Blot Results.
(§3) Protein concentrations were determined using BCA assay (Pierce). […] Membranes were washed three times for 10 min and subsequently secondary antibodies were incubated with anti-mouse and anti-rabbit horseradish peroxidase conjugated antibodies (Santa Cruz Biotechnologies). Proteins were visualized by chemoluminescence using Amersham Plus ECL reagent (GE Healthcare). Bands were quantified via Western blot analysis by applying ImageJ software analysis. […] Briefly, areas under the curves were assessed for each specific band and comparisons were calculated by setting corresponding control values as 100% and each condition corrected by actin.
(§4) The LNA probes were purchased from Exiqon and synthesized using a phosphorothioate backbone.

[2] = tested on: LIN28; assay: Immunoblot of LIN28 protein in HCT116 cells; assay type: cell-based, human
Procedure: as §1, §2, §3, §4

[3] = tested on: Hmga2 3′ UTR; assay: Hmga2 3' UTR luciferase reporter assay; assay type: cell-based
Procedure: Luciferase Reporter Assays.
Hmga2 3′ UTR reporter plasmids were obtained from Addgene (Plasmid 14785) and have been characterized in previous studies (Mayr et al., 2007). A mutated Hmga2 reporter plasmid with disrupted let-7 complementary sites was also obtained (Addgene plasmid 14792). HCT116 cells were transfected in 6-well plates with 1.5 μg firefly luciferase and 1.5 μg Hmga2 Renilla luciferase reporter plasmids. For functional analysis, 25 nM LNA directed against the let-7 family were transfected with appropriate plasmids. Firefly and renilla luciferase were measured 48 h after transfection using a Dual Luciferase Assay (Promega). Results were then normalized to firefly luciferase. Results are mean±SD.

[4] = tested on: prostoglandin E2 (PGE2); details: 300 mg/day, one month; cited from earlier work
[5] = tested on: tumors harboring Ki-ras mutations; details: AOM-treated rats; reduced from 90%; cited from earlier work
[6] = in vivo; cited from earlier work
[7] = cited from earlier work
[8] = cited from earlier work; remark: listed apart in the source
[9] = tested on: tumor putrescine levels; details: rat-tumor model, DFMO infusion; cited from earlier work
[10] = tested on: hsa-let-7i; assay: Real-time quantitative RT-PCR of mature let-7i; assay type: cell-based, human
Procedure: as §1
RNA Isolation and Real-Time Quantitative RT-PCR.
Total RNA was extracted from cells using the miRVana RNA isolation kit (Ambion) and measured using Thermo Scientific NanoDrop 2000. miRNA levels were measured using an Applied Biosystems 7500 HT PCR instrument with Taqman microRNA assay kits. Controlled reactions were confirmed by excluding reverse transcriptase to confirm amplification from cDNA. Results were analyzed using comparative Ct method between untreated and treated cells. Statistical analysis was performed using two tailed Student's t-tests.

[11] = tested on: colon cancer cells; assay: Measurements of intracellular polyamine content (HPLC); assay type: cell-based, human
Source text: Measurements of Intracellular Polyamine Content.
Cells were homogenized in 0.2 N HClO4. Acid-soluble and acid insoluble fractions were used to determine intracellular polyamines and protein content, respectively.
It was hypothesized that the polyamines, acting independently or via eIFSA, might affect levels of non-coding RNAs.

[12] = tested on: colorectal cancer cells (HCT116); assay: Non-coding RNA microarray of DFMO treated vs untreated cells; assay type: cell-based, human; details: 96 h
Procedure: HCT116 cells were grown in DMEM media supplemented with 10% fetal bovine serum and cultured at 37° C. For reverse transcription, total RNA was extracted using mirVana RNA isolation kit and reverse transcription performed using Taqman Small RNA Assays with predesigned primer specific to mature let-7 (Applied Biosystems). […] Western blots were conducted using anti-HMGA2 (Cell Signaling), LIN28 (abcam), anti-V5 (Invitrogen), eIF5A1 (Epitomics), and Actin (Sigma). Locked Nucleic Acid (LNA) anti-sense oligos were purchased from Exiqon and directed against seed region of let-7 as described previously (Obad et al., 2011). Pre-designed Silencer Select siRNAs (Invitrogen) were obtained to specifically knockdown eIFSA isoforms. All transfections were conducted using Lipofectamine 2000 as described by manufacturer for up to 48 h. All bars show mean±s.d and statistical analysis was performed by using Student's t-test (*P<0.05; **P<0.01, ***P<0.001).
Non-Coding RNA Microarray.
Samples for miRNA profiling studies were processed by Asuragen Services (Austin, Tex.), according to the company's standard operating procedures. Following incoming sample quality control (QC) assessment, the 3′ ends of RNA molecules in total RNA samples were labeled with biotin according to the company's standard protocol. Labeled RNA (100 ng total RNA per sample) was purified and hybridized to Affymetrix GeneChip® miRNA Arrays (Affymetrix, Santa Clara, Calif.). Hybridization, washing, staining, imaging, and signal extraction were performed according to Affymetrix-recommended procedures. Arrays were scanned on an Affymetrix GeneChip® Scanner 3000 7G.
Signal Processing. The signal processing implemented for the Affymetrix miRChip is a multi-step process involving probe specific signal detection calls, background estimate and correction. For each probe, a global robust multichip average (RMA) background correction is performed with Median Polish summarization. Arrays within a specific analysis experiment are normalized together using Quantile normalization. Detection calls are based on a Wilcoxon rank-sum test of the miRNA probe signal compared to the distribution of signals from GC-content matched anti-genomic probes. The raw gene expression data (.cel files) were converted to expression values using the miRNAQCTool, an open-source package available through Affymetrix. […]. RMA selection was used as a normalization method. Permutation P-values were then calculated for the t-test comparison between the DFMO treated and untreated placebo plates. These P-values were then ranked and a candidate gene list was compiled, using false discovery rate (FDR), adjusted P-value cut-offs obtained by the linear step-up method described by Benjamini and Hochberg (1995).
Next, the mechanism by which polyamines modulate oncogenesis and the effects of polyamine depletion on non-coding RNA levels was investigated by using a non-coding RNA microarray platform containing 15,644 probes, which included 1105 human mature miRNAs. MicroRNAs (miRNAs) are small endogenous RNA species known to modulate cellular signaling predominantly by binding the 3′ untranslated region (UTR) of RNA species. Binding of miRNAs to its cognate target generally results in mRNA destabilization or translational repression (Filipowicz et al., 2008). As a result of the abilities of miRNAs to modulate signaling networks involved in both development and neoplastic diseases, miRNAs serve as attractive targets for disease intervention.

[13] = tested on: HCT116 cells; assay: Cellular proliferation and viability (Vi-Cell counter, trypan blue exclusion); assay type: cell-based, human
Procedure: Cellular Proliferation. […] At each time point, cells were trypsinized with 500 μL of trypsin and resuspended with 1.5 mL DMEM supplemented with FBS. One milliliter of the resuspension was then loaded and analyzed using a Beckman-Coulter Vi-Cell Counter. Cellular viability was measured through the trypan blue exclusion assay.

## anti-let-7 LNA: locked nucleic acid antisense oligo, phosphorothioate backbone, against let-7 seed region: ACTACCTC (SEQ ID NO: 1) (all phosphorothioate, sugars by position and methylation of C not given here; LNA oligo)
[1]; LNA transfected DFMO-treated HCT116 cells (FIG. 2C)
  HMGA2 protein in DFMO-treated cells: rescued
[1]; LNA transfected mock-treated HCT116 cells (FIG. 2C, 3C), listed as LNAs targeting let-7
  HMGA2 protein levels, cells without DFMO: increase in HMGA2 protein levels; also recorded: increased
[2]; 25 nM anti-let-7 LNA, HCT116 cells (FIG. 3C)
  LIN28 expression: little effect
[3]; 25 nM LNA, both DFMO treated and untreated HCT116 cells (FIG. 2B)
  wild-type Hmga2 3′ UTR luciferase activity: enhanced luciferase activity
[3]; 25 nM LNA, irrespective of polyamine levels (FIG. 2B)
  mutated 3′ UTR Hmga2 luciferase activity: no observable effect

## CC(C)Cc1ccc(C(C)C(=O)O)cc1 (stereo not shown) [ibuprofen]
[4]
  prostoglandin E2 (PGE2) levels in flat mucosa: significant decrease

## CN1C(C(=O)Nc2ccccn2)=C(O)c2ccccc2S1(=O)=O [piroxicam, 4-hydroxy-2-methyl-N-2-pyridyl-2H-1,2-benzothiazine-3-carboxamide 1,1-dioxide]
[5]
  number of tumors harboring Ki-ras mutations: 25%

## Cc1ccc(-c2cc(C(F)(F)F)nn2-c2ccc(S(N)(=O)=O)cc2)cc1 [celecoxib, 4-[5-(4-Methylphenyl)-3-(trifluoromethyl)pyrazol-1-yl]benzenesulfonamide]
[6]
  increase in rates of heart and blood vessel disease: 30%
  risk of gastrointestinal side effects: greater than 80%

## CC1=C(CC(=O)O)c2cc(F)ccc2/C1=C\c1ccc([S+](C)[O-])cc1 (stereo not shown) [sulindac, (Z)-5-fluoro-2-methyl-1-((4 (methylsulfinyl)phenyl)methylene) 1H-indene-3-acetic acid]
[7]; administered with food
  time to peak plasma levels, with food: 3 to 4 h
[7]; after oral administration
  fraction of the drug absorbed: about 90%
[7]; fasting patients
  time to peak plasma levels, fasting: about 2 h
[8]; abdominal pain and nausea most frequent
  patients with mild gastrointestinal effects: ~20%
[8]; human, in vivo
  patients with skin rash and pruritus: 5%

## NCCCC(N)(C(=O)O)C(F)F (racemic) [DFMO, 2-(difluoromethyl)-dl-ornithine]
[9]
  decrease in tumor putrescine levels: 90%
[1]; HCT116 cells, 5 mM DFMO, 72 h (FIG. 2A, 2C)
  HMGA2 protein levels: robust HMGA2 depletion; also recorded: lower HMGA2 levels
[2]; HCT116 cells, 5 mM DFMO, 72 h (FIG. 2A)
  LIN28 protein levels: lowered levels of LIN28
[10]; HCT116 cells treated with DFMO, maximal at 96 h (FIG. 1C)
  expression of mature let-7i: Increased expression
[3]; DFMO-treated mock cells compared to mock-untreated cells (FIG. 2B)
  HMGA2 luciferase activity: a reduction in HMGA2 luciferase was observed
[11]; colon cancer cells, 96 h of DFMO treatment (FIG. 1A)
  intracellular polyamine pools: depletion of putrescine and spermidine
[5]
  number of tumors harboring Ki-ras mutations: 36%
[12]; probe U8_st
  Mean Expression Level Treatment, probe U8_st: 8.90
[12]; probe U8_x_st
  Mean Expression Level Treatment, probe U8_x_st: 8.86
[12]; probe U13_st
  Mean Expression Level Treatment, probe U13_st: 9.81
[12]; probe U50B_st
  Mean Expression Level Treatment, probe U50B_st: 10.72
[12]; probe U50B_x_st
  Mean Expression Level Treatment, probe U50B_x_st: 9.86
[12]; probe hsa-let-7i_st
  Mean Expression Level Treatment, probe hsa-let-7i_st: 10.74
[12]; probe hsa-miR-22_st
  Mean Expression Level Treatment, probe hsa-miR-22_st: 10.38
[12]; probe hsa-miR-193b_st
  Mean Expression Level Treatment, probe hsa-miR-193b_st: 8.79
[12]; probe hsa-miR-200a-star_st
  Mean Expression Level Treatment, probe hsa-miR-200a-star_st: 4.89
[12]; probe hsa-miR-221_st
  Mean Expression Level Treatment, probe hsa-miR-221_st: 12.50
[12]; probe hsa-miR-494_st
  Mean Expression Level Treatment, probe hsa-miR-494_st: 12.64
[12]; probe hsa-miR-517a_st
  Mean Expression Level Treatment, probe hsa-miR-517a_st: 1.47
[12]; probe hsa-miR-720_st
  Mean Expression Level Treatment, probe hsa-miR-720_st: 14.63
[12]; probe hsa-miR-886-3p_st
  Mean Expression Level Treatment, probe hsa-miR-886-3p_st: 11.26
[13]; DFMO treatment, trypan blue exclusion
  cellular viability levels: not altered
[13]; HCT116 cells, 5 mM DFMO (FIG. 1B)
  cellular proliferation: reduce cellular proliferation

## NCCCCN [putrescine]
[2]; putrescine supplementation alone (FIG. 2A)
  LIN28 protein levels in non-drug treated cells: did not alter
[2]; putrescine supplementation in DFMO treated cells (FIG. 2A)
  LIN28 protein levels in DFMO treated cells: LIN28 levels comparable to vehicle control; also recorded: rescued
[10]; HCT116, putrescine after DFMO administration (FIG. 1D)
  let-7i levels in DFMO treated cells: rescued
[10]; HCT116, putrescine alone (FIG. 1D)
  let-7i levels in cultures not treated with drug: no observable effect
[11]; exogenous putrescine supplementation of DFMO-treated cells (FIG. 1A)
  intracellular polyamine levels in DFMO-treated cells: restore intracellular polyamine levels
[13]; HCT116 cells, 50 μM putrescine with 5 mM DFMO (FIG. 1B)
  cellular proliferation of DFMO-treated cells: proliferation rates similar to control levels
